Source: ChEMBL document CHEMBL1201862, “PubChem BioAssay data set” (2004)
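Compound exposure: 48 hours, 5 concentrations, 96-well plates. GI50 marks 50% less growth.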 Active and inactive are the calls of the source. Rule as the data show it: active = GI50 up to about 1.1 µM and inactive = higher.

Tests used:
Test in all cases: NCI anticancer screen, dose series, 48 h
[1] = system: A549
[2] = system: CAKI-1
[3] = system: RPMI-8226
[4] = system: SF-268
[5] = system: KM12
[6] = system: MDA-MB-435
[7] = system: NCI-H522
[8] = system: SW-620
[9] = system: RXF 393
[10] = system: ACHN
[11] = system: HOP-62
[12] = system: SK-MEL-5
[13] = system: SNB-75
[14] = system: UACC-257
[15] = system: NCI-H460
[16] = system: SK-OV-3
[17] = system: NCI-H226
[18] = system: M14
[19] = system: OVCAR-3
[20] = system: SF-295

Measured: GI50

CC(=O)Oc1ccc2c(c1)O/C(=C\c1ccc(N(C)C)cc1)C2=O
inactive: [1] > 100 µM | [2] > 100 µM | [3] 54.6 µM | [4] > 100 µM | [5] 90.8 µM | [6] 35.3 µM | [7] 25.9 µM | [8] 52.2 µM | [9] 73.5 µM | [10] > 100 µM | [11] > 100 µM | [12] > 100 µM | [13] 87.9 µM | [14] > 100 µM | [15] 70.1 µM | [16] > 100 µM | [17] > 100 µM | [18] > 100 µM

COC1=C2C[C@](OC)(C#CC=CC#CC2O)CC1(C)C (stereo partly drawn)
inactive: [1] 40.4 µM | [2] > 100 µM | [3] 95.5 µM | [4] > 100 µM | [5] > 100 µM | [6] > 100 µM | [7] > 100 µM | [8] > 100 µM | [9] > 100 µM | [10] > 100 µM | [19] > 100 µM | [11] > 100 µM | [20] > 100 µM | [12] > 100 µM | [13] > 100 µM | [14] > 100 µM | [15] > 100 µM | [17] > 100 µM

CCOC(=O)n1cncc1CC(NC(=O)Cc1c(C(=O)C=C(C)C)[nH]c2ccccc12)C(=O)OC (stereo not drawn)
inactive: [1] 19.2 µM | [2] 17.9 µM | [3] 32.5 µM | [4] 18 µM | [5] 19.3 µM | [6] 18.2 µM | [7] 3.56 µM | [8] 25.7 µM | [9] 14.1 µM | [10] 19.3 µM | [19] 17.7 µM | [20] 17.7 µM | [12] 18 µM | [13] 22.9 µM | [14] 13.3 µM | [15] 22.3 µM | [16] 17.5 µM | [17] 20.8 µM | [18] 15.6 µM

O=C(NN1C(=O)C=CC1=O)c1ccccc1Nc1ccccc1C(=O)NN1C(=O)C=CC1=O
inactive: [2] > 100 µM | [3] > 100 µM | [4] > 100 µM | [5] > 100 µM | [6] > 100 µM | [7] > 100 µM | [8] > 100 µM | [9] > 100 µM | [10] > 100 µM | [19] > 100 µM | [11] > 100 µM | [20] > 100 µM | [12] > 100 µM | [13] > 100 µM | [14] > 100 µM | [15] > 100 µM | [17] > 100 µM | [18] > 100 µM
